Experimental findings from ChEMBL document CHEMBL1147399, “Two new sesquiterpene lactones from Ceiba pentandra” (1993) are described below.

In brackets after ≈: the same amount, converted by molar mass. Where only a bound is given, the exact number is not on record here.

What all share (assay type): functional
One assay relates to Staphylococcus aureus. Description: Antibacterial activity against Staphylococcus aureus ATCC 6538.
The subject of the next assay is Klebsiella pneumoniae. Description: Antibacterial activity against Klebsiella pneumoniae ATCC 13883.
The test system of the next assay is Candida albicans. Description: Antifungal activity against Candida albicans ATCC 10231.
Another assay relates to Escherichia coli. As to the kind of experiment: Antibacterial activity against Escherichia coli ATCC 10536.
For the next assay, the system named is Aspergillus niger. Description: Antifungal activity against Aspergillus niger NRRL 530.
Another assay deals with Bacillus subtilis. Description: Antibacterial activity against Bacillus subtilis ATCC 6633.

In the case of `COc1cc(C(C)C)c2cc(C)c(O)c3c2c1C(=O)O3`, the minimal inhibitory concentration (MIC) (usually the smallest concentration in the dilution series that meets the test's criterion for growth inhibition) in the assay on Staphylococcus aureus is 300 µg/mL (≈ 1100 µM); with Klebsiella pneumoniae, over 1000 µg/mL; in the assay on Candida albicans it was 225 µg/mL (≈ 826 µM); with Escherichia coli, over 1000 µg/mL; in the assay with Aspergillus niger, 250 µg/mL (≈ 918 µM); against Bacillus subtilis, 350 µg/mL (≈ 1290 µM).

Take `COc1cc(C(C)C)c2cc(C)c(OC)c3c2c1C(=O)O3`: the MIC is 275 µg/mL (≈ 960 µM) against Staphylococcus aureus; over 1000 µg/mL in the assay with Klebsiella pneumoniae; 175 µg/mL (≈ 611 µM) in the assay on Candida albicans; over 1000 µg/mL against Escherichia coli; 200 µg/mL (≈ 699 µM) with Aspergillus niger; 250 µg/mL (≈ 873 µM) with Bacillus subtilis.
